# Results: paper PMC5733478, “A Non-imaging High Throughput Approach to Chemical Library Screening at the Unmodified Adenosine-A3 Receptor in Living Cells” (Frontiers in Pharmacology, 2017)
# Structures can show the parent of a compound that is named as a salt.
# Molecular target: T1, human A3AR (Homo sapiens, UniProt P0DMS8)
# T1 construct: expressed in transfected cells
# T1 sequence (P0DMS8 1-318): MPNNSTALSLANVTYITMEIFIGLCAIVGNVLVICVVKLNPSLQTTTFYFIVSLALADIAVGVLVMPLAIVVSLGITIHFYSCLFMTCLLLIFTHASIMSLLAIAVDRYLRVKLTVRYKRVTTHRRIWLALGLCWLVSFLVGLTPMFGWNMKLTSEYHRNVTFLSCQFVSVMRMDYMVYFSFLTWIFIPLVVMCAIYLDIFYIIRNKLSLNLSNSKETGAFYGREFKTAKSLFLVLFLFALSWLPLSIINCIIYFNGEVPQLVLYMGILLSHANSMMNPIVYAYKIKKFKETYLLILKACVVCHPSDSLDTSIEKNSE
# Test: LOPAC library primary screen: single concentration (10 μM) inhibition of 25 nM CA200645 binding, PHERAstar FS
# Conditions: not given
row,Molecule,% 25 nM CA200645 binding
1,COc1ccc2c(c1)CC[C@@H]1[C@@H]2CC[C@]2(C)[C@@H](NCCCCCCN3C(=O)CCC3=O)CC[C@@H]12 [U-73343],99.9 ± 5.3%
2,C[C@]12C=CC(=O)C=C1CC[C@@H]1C2=CC[C@]2(C)[C@@H](C(=O)CN3CCN(c4cc(N5CCCC5)nc(N5CCCC5)n4)CC3)CC[C@@H]12.O=C(O)/C=C\C(=O)O [U-74389G maleate],36.9 ± 10.8%
3,CCCN(CCC)C1Cc2cc(OC)c(OC)cc2C1.O=C(O)/C=C\C(=O)O [U-99194A maleate],101.3 ± 8.9%
4,CC(C)Oc1cccnc1N(C)C1CCN(Cc2ccccc2)CC1.O=C(O)/C=C\C(=O)O [U-101958 maleate],102.1 ± 9.0%
5,c1ccc(C(NCc2cccnc2)(c2ccccc2)c2ccccc2)cc1 [UCL 2077],52.2 ± 5.4%
6,"Brc1c(NC2=NCCN2)ccc2nccnc12 [UK 14,304]",102.1 ± 10.4%
7,COc1ccccc1N1CCN(CCCNc2cc(=O)n(C)c(=O)n2C)CC1 [Urapidil hydrochloride],97.1 ± 1.5%
8,"COc1ccccc1N1CCN(CCCNc2c(C)c(=O)n(C)c(=O)n2C)CC1 [Urapidil, 5-Methyl-]",83.5 ± 22.8%
9,O=c1ccn([C@@H]2O[C@H](COP(=O)([O-])OP(=O)([O-])O)[C@@H](O)[C@H]2O)c(=O)[nH]1.[Na+].[Na+] [Uridine 5'-diphosphate sodium],100.6 ± 5.7%
10,C[C@H](N)CN1CCc2ccc(Br)cc21.C[C@H](N)CN1CCc2ccc(Br)cc21.O=C(O)/C=C/C(=O)O [VER-3323 hemifumarate salt],107.7 ± 7.9%
11,CCCC(CCC)C(=O)O [Valproic acid sodium],99.8 ± 9.6%
12,CCN(CC)C(=O)c1ccc(O)c(OC)c1 [Vanillic acid diethylamide],101.7 ± 2.4%
13,O=C(O)C(O)C(O)C(=O)O.c1cnc2cc3c(cc2n1)[C@@H]1CNC[C@H]3C1 [Varenicline tartrate],90.5 ± 2.6%
14,COc1ccc(C(CN(C)C)C2(O)CCCCC2)cc1 (centres unmarked) [Venlafaxine hydrochloride],97.3 ± 8.5%
15,CC[C@]1(O)C[C@@H]2CN(CCc3c([nH]c4ccccc34)[C@@](C(=O)OC)(c3cc4c(cc3OC)N(C)[C@H]3[C@@](O)(C(=O)OC)[C@H](OC(C)=O)[C@]5(CC)C=CCN6CC[C@]43[C@@H]65)C2)C1.O=S(=O)(O)O [Vinblastine sulfate salt],98.2 ± 16.0%
16,CC[C@]1(O)C[C@H]2CN(CCc3c([nH]c4ccccc34)[C@@](C(=O)OC)(c3cc4c(cc3OC)N(C=O)[C@H]3[C@@](O)(C(=O)OC)[C@H](OC(C)=O)[C@]5(CC)C=CCN6CC[C@]43[C@@H]65)C2)C1 [Vincristine sulfate],106.1 ± 21.2%
17,CCOC(=O)C1=C[C@]2(CC)CCCN3CCc4c(n1c1ccccc41)[C@@H]32 [Vinpocetine],97.3 ± 11.5%
18,C[C@@H](c1ncncc1F)[C@](O)(Cn1cncn1)c1ccc(F)cc1F [Voriconazole],96.1 ± 10.4%
19,COc1ccccc1N1CCN(CCN(C(=O)C2CCCCC2)c2ccccn2)CC1.O=C(O)/C=C\C(=O)O [WAY-100635 maleate],90.8 ± 17.8%
20,COc1cccc(OC)c1OCCNCC1COc2ccccc2O1.Cl (centres unmarked) [WB-4101 hydrochloride],76.0 ± 5.8%
21,"C#C[C@]1(O)CC[C@H]2[C@@H]3CCC4=Cc5nc6nc7ccccc7n6cc5C[C@]4(C)[C@H]3CC[C@@]21C [WIN 62,577]",67.3 ± 5.6%
22,COC[C@H]1OC(=O)c2coc3c2[C@@]1(C)C1=C(C3=O)[C@@H]2CCC(=O)[C@@]2(C)C[C@H]1OC(C)=O [Wortmannin from Penicillium funiculosum],82.6 ± 17.7%

row,Molecule,% 25 nM CA200645 binding
1,COc1cc(/C=C(\C#N)C(=O)Nc2nnc(C(F)(F)F)s2)ccc1OCc1ccc(C(F)(F)F)cc1C(F)(F)F [XCT790],87.7 ± 9.0%
2,Cc1cccc(C)c1N=C1NCCCS1 [Xylazine hydrochloride],106.3 ± 5.8%
3,Cc1cc(C(C)(C)C)cc(C)c1CC1=NCCN1 [Xylometazoline hydrochloride],106.7 ± 10.4%
4,C[C@@H](N)[C@H]1CC[C@H](C(=O)Nc2ccncc2)CC1.Cl.Cl [Y-27632 dihydrochloride],98.6 ± 10.3%
5,CCc1ccc2c(-c3cccc(Cl)c3)nc(=O)n(CC)c2n1 [YM 976],93.5 ± 3.0%
6,COC(=O)[C@@H]1[C@H]2C[C@H]3c4[nH]c5ccccc5c4CCN3C[C@@H]2CC[C@@H]1O [Yohimbine hydrochloride],100.6 ± 0.5%
7,O=C(N[C@@H](Cc1ccccc1)C(=O)CCl)OCc1ccccc1 [Z-L-Phe chloromethyl ketone],100.8 ± 7.1%
8,CC(C)N(CCC(=O)c1ccc2ccccc2c1)Cc1ccccc1.Cl [ZM 39923 hydrochloride],115.5 ± 23.0%
9,CN(C)C/C=C(/c1ccc(Br)cc1)c1cccnc1 [Zimelidine dihydrochloride],92.5 ± 9.4%
10,O=C1Cc2cc(CCN3CCN(c4nsc5ccccc45)CC3)c(Cl)cc2N1 [Ziprasidone hydrochloride monohydrate],84.7 ± 3.4%
11,NS(=O)(=O)Cc1noc2ccccc12 [Zonisamide sodium],98.6 ± 10.8%
12,"O=c1nc2[nH]c3ccccc3nc-2c(=O)[nH]1 [alloxazine, reference compound]",89.0 ± 4.9%
13,N=C(N)NC(CCC(=O)O)C(=O)O (stereo not drawn) [alpha-Guanidinoglutaric acid],76.4 ± 9.5%
14,CN1[C@@H](CC(=O)c2ccccc2)CCC[C@H]1C[C@H](O)c1ccccc1.Cl [alpha-Lobeline hydrochloride],90.3 ± 6.6%
15,CC(N)Cc1c[nH]c2ccc(O)cc12.O=C(O)/C=C\C(=O)O (stereo not drawn) [alpha-Methyl-5-hydroxytryptamine maleate],115.5 ± 12.2%
16,C[C@]12CC[C@@H]3c4ccc(O)cc4CC[C@H]3[C@@H]1CC[C@@H]2O [beta-Estradiol],87.8 ± 13.4%
17,CC1(C)CCC2=C(O1)c1ccccc1C(=O)C2=O [beta-Lapachone],93.1 ± 5.0%
18,"Cn1c(=O)c2c(ncn2C)n(C)c1=O [caffeine, reference compound]",95.8 ± 4.7%
19,NC/C=C\C(=O)O [cis-4-Aminocrotonic acid],103.0 ± 10.1%
20,OCCN1CCN(CC/C=C2/c3ccccc3Sc3ccc(C(F)(F)F)cc32)CC1 [cis-(Z)-Flupenthixol dihydrochloride],96.5 ± 4.1%
21,C#CC(N)CCC(=O)O (centres unmarked) [gamma-Acetylinic GABA],97.6 ± 3.0%
22,Cl.Cl.Oc1ccc2c3c1O[C@H]1c4[nH]c5c(c4C[C@@]4(O)[C@@H](C2)N(CC2CC2)CC[C@]314)C[C@@]1(O)[C@H]2Cc3ccc(O)c4c3[C@@]1(CCN2CC1CC1)[C@H]5O4 [nor-Binaltorphimine dihydrochloride],96.9 ± 14.7%

row,Molecule,% 25 nM CA200645 binding
1,Cl.Nc1cc(Cl)c(N=C2NCCN2)c(Cl)c1 [p-Aminoclonidine hydrochloride],89.0 ± 23.3%
2,O=C1C=CC(=O)C=C1 [p-Benzoquinone],85.9 ± 13.7%
3,N[C@@H](Cc1ccc(F)cc1)C(=O)O [p-Fluoro-L-phenylalanine],98.5 ± 8.4%
4,Cl.Clc1cc(I)cc(Cl)c1NC1=NCCN1 [p-Iodoclonidine hydrochloride],77.2 ± 42.2%
5,COc1ccccc1N1CCN(CCN(C(=O)c2ccc(F)cc2)c2ccccn2)CC1.Cl.Cl [p-MPPF dihydrochloride],117.8 ± 19.4%
6,(+)-Catechin Hydrate,94.3 ± 10.9%
7,(±)-Ibuprofen,91.4 ± 12.3%
8,CCT007093,68.4 ± 3.4%
9,L-Methionine sulfoximine,107.1 ± 5.4%
10,"LY-310,762 hydrochloride",93.0 ± 7.5%
11,"LY-367,265",64.8 ± 25.8%
12,"MDL 26,630 trihydrochloride",124.5 ± 16.5%
13,PD-184161,50.8 ± 14.3%
14,Picrotoxin,96.8 ± 4.1%
15,R(-)-Me5,100.1 ± 8.0%
16,Ro 8-4304,107.2 ± 11.5%
17,Ro 20-1724,108.8 ± 2.1%
18,Ro 41-0960,98.8 ± 6.8%
19,Ro 90-7501,72.1 ± 6.0%
20,S(-)-UH-301 hydrochloride,106.6 ± 12.1%
21,S-Nitroso-N-acetylpenicillamine,127.5 ± 10.1%
22,trans-(±)-ACPD,83.6 ± 13.4%

# Same assay, conditions: 10 μM compound, 25 nM CA200645, A3AR CHO cells
row,Molecule,hit in LOPAC primary screen (inhibited the binding of CA200645 by >40%)
1,"O=c1nc2[nH]c3ccccc3nc-2c(=O)[nH]1 [alloxazine, reference compound]",not identified as hits
2,"CCOC(=O)c1cnc2c(cnn2CC)c1NN=C(C)C [etazolate hydrochloride, reference compound]",identified

# Same assay, conditions: % of control wells (1% DMSO and 25 nM CA200645); compounds at 10 µM; whole live cells expressing the A3AR; mean ± SD, three experiments in duplicate
row,Molecule,% 25 nM CA200645 binding
1,"CCOC(=O)c1cnc2c(cnn2CC)c1NN=C(C)C [etazolate hydrochloride, reference compound]",46.2 ± 5.3%

# Same assay, conditions: compounds tested at 10 µM; % of control wells (1% DMSO and 25 nM CA200645); whole live cells expressing the A3AR; mean ± SD, three experiments in duplicate
row,Molecule,% 25 nM CA200645 binding
1,CCCOc1ccccc1-c1nc2nn[nH]c2c(=O)[nH]1 [Zaprinast],109.4 ± 6.4%
2,Nc1ncnc2c1ncn2[C@@H]1O[C@H](CO)[C@@H](O)[C@H]1O [adenosine],92.3 ± 7.9%
